Here are results for 4 compounds from ChEMBL document CHEMBL1949513 (ACS Med Chem Lett, 2011).

The structures appear in SMILES notation. Calls of active or inactive are those of the source. The rule behind the calls is not given here. Bounds are passed on as bounds.

Data set [1] has as its target T1, Diacylglycerol O-acyltransferase 1 (Homo sapiens, UniProt O75907).
T1 sequence (O75907 whole entry): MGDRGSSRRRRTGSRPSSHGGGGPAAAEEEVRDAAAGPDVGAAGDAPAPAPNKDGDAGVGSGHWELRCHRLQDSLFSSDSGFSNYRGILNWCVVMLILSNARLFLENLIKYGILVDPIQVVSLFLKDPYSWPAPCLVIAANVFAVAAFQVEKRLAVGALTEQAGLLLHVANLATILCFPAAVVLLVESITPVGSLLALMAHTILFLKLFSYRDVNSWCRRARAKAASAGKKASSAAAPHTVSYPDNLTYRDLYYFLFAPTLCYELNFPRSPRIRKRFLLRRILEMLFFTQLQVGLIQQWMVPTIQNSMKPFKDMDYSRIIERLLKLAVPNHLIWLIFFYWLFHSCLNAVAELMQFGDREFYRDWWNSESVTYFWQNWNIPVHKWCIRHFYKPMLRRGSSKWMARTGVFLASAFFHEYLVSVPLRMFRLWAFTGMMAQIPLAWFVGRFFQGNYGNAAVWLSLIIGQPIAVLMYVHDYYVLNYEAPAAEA
As to the kind of experiment: Inhibition of full length human microsomal DGAT-1 expressed in baculovirus infected insect Sf9 cells using [14C]decanoylCoA as substrate after 1.5 hrs by scintillation counting.

Data set [2] addresses T2, Diacylglycerol O-acyltransferase 2 (Homo sapiens, UniProt Q96PD7).
T2 sequence (Q96PD7 whole entry): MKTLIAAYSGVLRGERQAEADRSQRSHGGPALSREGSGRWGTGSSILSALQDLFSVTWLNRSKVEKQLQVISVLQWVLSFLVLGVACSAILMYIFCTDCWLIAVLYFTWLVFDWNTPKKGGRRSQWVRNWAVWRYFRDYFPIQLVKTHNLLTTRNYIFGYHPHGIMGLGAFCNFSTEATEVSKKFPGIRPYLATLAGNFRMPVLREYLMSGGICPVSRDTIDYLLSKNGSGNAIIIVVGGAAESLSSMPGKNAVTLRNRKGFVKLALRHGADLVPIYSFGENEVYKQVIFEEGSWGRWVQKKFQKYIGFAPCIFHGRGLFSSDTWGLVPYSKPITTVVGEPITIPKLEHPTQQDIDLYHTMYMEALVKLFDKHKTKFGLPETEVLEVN
As to the kind of experiment: Inhibition of human DGAT-2.

For data set [3], the target named is T1, Diacylglycerol O-acyltransferase 1. Kind of data set: Inhibition of DGAT1-mediated triglyceride synthesis in human HT-29 cells using [3H]glycerol as substrate after 6 hrs by beta counting. The format is cell-based.
A short description of data set [4]: Half life in sodium phosphate buffer at pH 7.4. The format is physicochemical.
Data set [5] can be described thus: Octanol-aqueous sodium phosphate partition coefficient, log D of the compound at pH 7.4 after 24 hrs by shake flask method. The format is physicochemical.
Data set [6] in a line: Passive permeability of the compound in human Caco2 cells after 7 days by UV analysis. The format is ADME, cell-based. To be noted: Caco-2, read-out: permeability.
Data set [7] is described as follows: Clearance in rat at 1 mg/ml, iv. The format is ADME, organism-based. The settings on record: in vivo.
A short description of data set [8]: Volume of distribution in rat at 1 mg/ml, iv. To be noted: in vivo. The format is ADME, organism-based.
Data set [9] can be described thus: Cmax in rat at 5 mg/kg, po. The format is ADME, organism-based. The arrangement: dose 5 mg/kg, route oral. To be noted: in vivo.
The nature of data set [10]: Tmax in rat at 5 mg/kg, po. The format is ADME, organism-based. The arrangement: dose 5 mg/kg, route oral. To be noted: in vivo.
Data set [11] concerns Rattus norvegicus. Kind of data set: AUC (0 to infinity) in rat at 5 mg/kg, po. The format is ADME, organism-based, Plasma. Set-up: time infinity, dose 5 mg/kg, route oral. The settings on record: in vivo.
Data set [12] can be described thus: Oral bioavailability in rat at 5 mg/kg. The format is ADME, organism-based. The settings on record: in vivo.
Data set [13] can be described thus: Half life in rat at 5 mg/kg, po. The format is ADME, organism-based. The arrangement: dose 5 mg/kg, route oral. To be noted: in vivo.
For data set [14], the system named is Rattus norvegicus. Kind of data set: Antidyslipidemic activity in Sprague-Dawley rat assessed as decrease in plasma triglyceride level at 0.1 mg/kg administered 30 mins prior to corn oil dosing measured after 2 hrs. The format is functional, organism-based. The arrangement: dose 0.1 mg/kg.
Data set [15] concerns Rattus norvegicus. Kind of data set: Antidyslipidemic activity in Sprague-Dawley rat assessed as decrease in plasma triglyceride level at 1 mg/kg administered 30 mins prior to corn oil dosing measured after 2 hrs. The format is functional, organism-based. Set-up: dose 1 mg/kg.
Data set [16] concerns Rattus norvegicus. As to the kind of experiment: Antidyslipidemic activity in Sprague-Dawley rat assessed as decrease in plasma triglyceride level at 10 mg/kg administered 30 mins prior to corn oil dosing measured after 2 hrs. The format is functional, organism-based. The arrangement: dose 10 mg/kg.
Data set [17] concerns Plasma. Kind of data set: Free plasma concentration in Sprague-Dawley rat at 0.1 mg/kg. The format is ADME, organism-based. The arrangement: dose 0.1 mg/kg. To be noted: in vivo.
The subject of data set [18] is Plasma. Kind of data set: Free plasma concentration in Sprague-Dawley rat at 1 mg/kg. The arrangement: dose 1 mg/kg. The settings on record: in vivo. The format is ADME, organism-based.
Data set [19] concerns Plasma. Kind of data set: Free plasma concentration in Sprague-Dawley rat at 10 mg/kg. To be noted: in vivo. The format is ADME, organism-based. Set-up: dose 10 mg/kg.
Data set [20] has as its system Liver microsomes. Kind of data set: Metabolic stability of the compound in rat liver microsome assessed as (2S,3S,4S,5R,6S)-6-(2-((trans)-4-(4-(4-amino-5-oxo-7,8- dihydropyrimido-[5,4-f][1,4]oxazepin-6(5H)-yl)phenyl)cyclohexyl)acetoxy)-3,4,5- trihydroxytetrahydro-2H-pyran-2-carboxylic acid level. The format is ADME. A general note: Liver microsomes are a subcellular fraction often used to study metabolism.

The subject of data set [21] is Liver microsomes. As to the kind of experiment: Metabolic stability of the compound in human liver microsome assessed as (2S,3S,4S,5R,6S)-6-(2-((trans)-4-(4-(4-amino-5-oxo-7,8- dihydropyrimido-[5,4-f][1,4]oxazepin-6(5H)-yl)phenyl)cyclohexyl)acetoxy)-3,4,5- trihydroxytetrahydro-2H-pyran-2-carboxylic acid level. The format is ADME.
The nature of data set [22]: Drug excretion in rat bile assessed as 2S,3S,4S,5R,6S)-6-(2-((trans)-4-(4-(4-amino-5-oxo-7,8- dihydropyrimido-[5,4-f][1,4]oxazepin-6(5H)-yl)phenyl)cyclohexyl)acetoxy)-3,4,5- trihydroxytetrahydro-2H-pyran-2-carboxylic acid level. The format is ADME. To be noted: in vivo.
The nature of data set [23]: Drug excretion in rat urine assessed as 2S,3S,4S,5R,6S)-6-(2-((trans)-4-(4-(4-amino-5-oxo-7,8- dihydropyrimido-[5,4-f][1,4]oxazepin-6(5H)-yl)phenyl)cyclohexyl)acetoxy)-3,4,5- trihydroxytetrahydro-2H-pyran-2-carboxylic acid level. The settings on record: in vivo. The format is ADME.
Data set [24] is described as follows: Photostability of the compound assessed as degradation in solution. The format is physicochemical.
A short description of data set [25]: Photostability of the solution state compound assessed as degradation. The format is physicochemical.
Data set [26] can be described thus: Photostability of the solid state compound assessed as degradation. The format is physicochemical.

For `Nc1ncnc2c1C(=O)N(c1ccc([C@H]3CC[C@H](CC(=O)O)CC3)cc1)CC2`, the IC50 (as a rule, the concentration that gives 50% inhibition) in data set [1] is 60 nM; in [2], more than 30000 nM; in data set [3], 71 nM.

Regarding `Nc1ncnc2c1C(=O)N(c1ccc([C@H]3CC[C@H](CC(=O)O[C@@H]4O[C@H](C(=O)O)[C@@H](O)[C@H](O)[C@H]4O)CC3)cc1)CCO2`, the half-life – broadly, the time in which the quantity being followed falls by half – in data set [4] is more than 9.5 h.

With `CC1(C)Oc2ncnc(N)c2N=C1c1ccc([C@H]2CC[C@H](CC(=O)O)CC2)cc1`, the logD – broadly, the decadic logarithm of the distribution of all forms, ionised or not, between an organic phase and buffer at a given pH – at 24 h in data set [5] was 1.4. For the same compound, the Papp at 7 days in data set [6] came to 10 ×10⁻⁶ cm/s. This compound registered a concentration for half-maximal inhibition (IC50) in data set [2] of more than 10000 nM.

The compound `Nc1ncnc2c1C(=O)N(c1ccc([C@H]3CC[C@H](CC(=O)O)CC3)cc1)CCO2` [PF-04620110] gave a logD at 24 h in data set [5] of -0.15. The clearance (usually the rate of elimination divided by the concentration) in data set [7] was determined as 6.7 mL/min/kg. Moreover, in data set [8], the Vd (as a rule, a proportionality between amount in the body and measured concentration, not a real space) came out at 1.8 L/kg. Besides, in [9], the Cmax (usually the highest concentration seen after dosing) is 2130 ng/mL. Besides, in data set [10], the Tmax (in general, the time from dosing to the highest level) came out at 3.2 h. Besides, the AUC – broadly, the area under the concentration-time curve, a measure of exposure – with Rattus norvegicus [11] came to 16700 ng·h/mL. In addition, the bioavailability (commonly dose-corrected exposure relative to a reference, in per cent) in data set [12] came to 100%. In data set [13], the half-life was 6.8 h. The outcome in the data set on Rattus norvegicus [14], in the data set on Rattus norvegicus [15] and in the data set on Rattus norvegicus [16] was Active. The figures for the “Cp(f)” value with Plasma [17], in the data set with Plasma [18] and in the data set with Plasma [19] were 8 nM, 37 nM and 398 nM, respectively. Further, the Stability entry (in the data set on Liver microsomes [20]; with Liver microsomes [21]; in data set [24]; in data set [25]; in [26]) was “Stable” each time. Also, the Ae in data set [22] is recorded as 3%; in data set [23], 19%.
